# Patent US6833478B2 (priority 2001, dated 2004)
# Where a name gives a salt, the structure may show the parent alone.
# Assay: Volume of water needed to dissolve
# Type: physicochemical
# Settings: 1 mmole (782 mg)
# Text: Evidently, dinitramide ion quenches the fluorescence of protonated quinine.
smiles,measurement,value
C=C[C@H]1C[N@@]2CC[C@H]1C[C@H]2[C@H](O)c1ccnc2ccc(OC)cc12 [quinine sulfate],water required to dissolve,900 mL
